± gives the expanded uncertainty stated by the source.
Legend:
[1] = refractive index (Na D-line) (dimensionless); settings: 101.33 kPa, Liquid, Standard Abbe refractometry
[2] = for mass density: 101.33 kPa, Liquid
[3] = refractive index (Na D-line) (dimensionless); xn = mol fraction of the nth substance listed; settings: 100.5 kPa, Liquid, Standard Abbe refractometry, x2 = 0
[4] = xn = mol fraction of the nth substance listed; settings: x2 = 0

Compound	refractive index ([1]; 288.15 K)	refractive index ([1]; 298.15 K)	refractive index ([1]; 308.15 K)	refractive index ([1]; 318.15 K)	surface tension liquid-gas ([2]; 288.15 K)	surface tension liquid-gas ([2]; 298.15 K)	mass density ([2]; 298.15 K)	surface tension liquid-gas ([2]; 308.15 K)	surface tension liquid-gas ([2]; 318.15 K)	refractive index ([3]; 288.15 K)	refractive index ([3]; 298.15 K)	refractive index ([3]; 308.15 K)	refractive index ([3]; 318.15 K)	surface tension liquid-gas ([4]; 288.15 K)	surface tension liquid-gas ([4]; 298.15 K)	surface tension liquid-gas ([4]; 308.15 K)	surface tension liquid-gas ([4]; 318.15 K)
CCCC(=O)OCCC(C)C [3-methylbutyl butanoate]	1.41259 ± 0.00034	1.40815 ± 0.00034	1.40374 ± 0.00034	1.39927 ± 0.00034	25.7 ± 0.6 mN/m	24.7 ± 0.6 mN/m	858.69 ± 0.44 kg/m3	24 ± 0.6 mN/m	23.1 ± 0.6 mN/m	–	–	–	–	–	–	–	–
CC(=O)OCCC(C)C [3-methylbutyl ethanoate]	1.40288 ± 0.00034	1.39836 ± 0.00034	1.39365 ± 0.00034	1.38895 ± 0.00034	25.4 ± 0.4 mN/m	24.3 ± 0.4 mN/m	867.91 ± 0.45 kg/m3	23.4 ± 0.4 mN/m	22.4 ± 0.4 mN/m	–	–	–	–	–	–	–	–
CCO [ethanol]	1.36333 ± 0.00031	1.35941 ± 0.00031	1.35531 ± 0.00031	1.35148 ± 0.00031	23 ± 0.4 mN/m	22.3 ± 0.4 mN/m	785 ± 0.24 kg/m3	21.5 ± 0.4 mN/m	20.6 ± 0.4 mN/m	–	–	–	–	–	–	–	–
CCO [ethanol] + CC(=O)OCCC(C)C	–	–	–	–	–	–	–	–	–	1.36333 ± 0.00031	1.35941 ± 0.00031	1.35531 ± 0.00031	1.35148 ± 0.00031	23 ± 0.4 mN/m	22.3 ± 0.4 mN/m	21.5 ± 0.4 mN/m	20.6 ± 0.4 mN/m
CCO [ethanol] + CCCC(=O)OCCC(C)C	–	–	–	–	–	–	–	–	–	1.36333 ± 0.00031	1.35941 ± 0.00031	1.35531 ± 0.00031	1.35148 ± 0.00031	23 ± 0.6 mN/m	22.3 ± 0.6 mN/m	21.5 ± 0.6 mN/m	20.6 ± 0.6 mN/m
CCO [ethanol] + CCCCCC(=O)OCC	–	–	–	–	–	–	–	–	–	1.36333 ± 0.00031	1.35941 ± 0.00031	1.35531 ± 0.00031	1.35148 ± 0.00031	23 ± 0.6 mN/m	22.3 ± 0.6 mN/m	21.5 ± 0.6 mN/m	20.6 ± 0.6 mN/m
CCO [ethanol] + CCCCCCCC(=O)OCC	–	–	–	–	–	–	–	–	–	1.36333 ± 0.00031	1.35941 ± 0.00031	1.35531 ± 0.00031	1.35148 ± 0.00031	23 ± 0.6 mN/m	22.3 ± 0.6 mN/m	21.5 ± 0.6 mN/m	20.6 ± 0.6 mN/m
CCO [ethanol] + CCOC(=O)Cc1ccccc1	–	–	–	–	–	–	–	–	–	1.36333 ± 0.00031	1.35941 ± 0.00031	1.35531 ± 0.00031	1.35148 ± 0.00031	23 ± 0.6 mN/m	22.3 ± 0.6 mN/m	21.5 ± 0.6 mN/m	20.6 ± 0.6 mN/m
CCO [ethanol] + CCOC(=O)c1ccccc1	–	–	–	–	–	–	–	–	–	1.36333 ± 0.00031	1.35941 ± 0.00031	1.35531 ± 0.00031	1.35148 ± 0.00031	23 ± 0.6 mN/m	22.3 ± 0.6 mN/m	21.5 ± 0.6 mN/m	20.6 ± 0.6 mN/m
CCOC(=O)c1ccccc1 [ethyl benzoate]	1.5076 ± 0.00032	1.50328 ± 0.00032	1.49863 ± 0.00032	1.49391 ± 0.00032	35.7 ± 0.7 mN/m	34.6 ± 0.7 mN/m	1041.42 ± 0.14 kg/m3	33.3 ± 0.7 mN/m	32.5 ± 0.7 mN/m	–	–	–	–	–	–	–	–
CCCCCC(=O)OCC [ethyl hexanoate]	1.4095 ± 0.00032	1.40504 ± 0.00032	1.40055 ± 0.00032	1.39597 ± 0.00032	26.4 ± 0.6 mN/m	25.4 ± 0.6 mN/m	866.29 ± 0.21 kg/m3	24.5 ± 0.6 mN/m	23.6 ± 0.6 mN/m	–	–	–	–	–	–	–	–
CCCCCCCC(=O)OCC [ethyl octanoate]	1.41991 ± 0.00033	1.4156 ± 0.00033	1.41137 ± 0.00033	1.40702 ± 0.00033	27.2 ± 0.6 mN/m	26.4 ± 0.6 mN/m	862.15 ± 0.41 kg/m3	25.5 ± 0.6 mN/m	24.7 ± 0.6 mN/m	–	–	–	–	–	–	–	–
CCOC(=O)Cc1ccccc1 [ethyl phenylacetate]	1.49971 ± 0.00034	1.49513 ± 0.00034	1.49063 ± 0.00034	1.48583 ± 0.00034	35.9 ± 0.7 mN/m	34.6 ± 0.7 mN/m	1026.96 ± 0.35 kg/m3	33.5 ± 0.7 mN/m	32.8 ± 0.7 mN/m	–	–	–	–	–	–	–	–

From the NIST ThermoML archive (doi:10.1021/je0601208)
